Row | SMILES | melting point
1 | CC1c2ccccc2-c2ccc(F)cc2N1S(=O)(=O)c1ccc(O)cc1 (configuration not stated) | 162 to 165 °C
2 | O=C1C(=Cc2ccc(Cl)s2)CCc2cc(OCCn3ccnc3)ccc21 | 143 to 144 °C
3 | Clc1cccc(-c2ncoc2-c2ccncc2)c1 | 125 to 126 °C
4 | C(=C1COc2ccc3c4c(nnc1c24)C(=Cc1ccccc1)CO3)c1ccccc1 | 242 °C
5 | COc1ccc2cc(C(=O)NCc3cc([N+](=O)[O-])cc([N+](=O)[O-])c3)c(=O)oc2c1 | 233 °C
6 | CN(C)c1ccc(C2CCc3ccccc3O2)cc1 (configuration not stated) | 77 to 78 °C
7 | O=C1N(Cc2ccccn2)c2ccccc2C12COc1cc3c(c(-c4ccoc4)c12)CCO3 (configuration not stated) | 195 to 197 °C
8 | COc1ccc(-c2nnn(-c3cc(C)on3)c2N)cc1 | 136 to 141 °C
9 | CC(C)CNC(=O)C1=C(C(=O)Nc2cc(OC3CCC(C)C3)c(Cl)cc2F)CCCC1 (configuration not stated) | 144 to 147 °C
10 | CCN(C)c1nn(C)c2ncc(-c3ccncc3)cc12 | 182 to 197 °C
11 | CNC(=O)COCC(=O)O | 33 to 33.5 °C
12 | COc1ccc(C2=Cc3ccc(OCc4ccccc4)cc3OC2)cc1 | 152 to 154 °C
13 | CS(=O)(=O)N1CC=C(c2ccc3cnc(Nc4ccc(N5CCOCC5)cc4)nn23)CC1 | 238 to 240 °C
14 | Cc1cc(/C=C/C(c2cc(Cl)cc(Cl)c2)C(F)(F)F)ccc1C(=O)NCc1cncnc1 (configuration not stated) | 141 to 144 °C
15 | O=C1CC2(CCOc3ccc(Cl)cc32)C(=O)N1 (configuration not stated) | 225 to 226 °C
16 | COC(=O)c1cc2sccc2s1 | 96 to 97 °C
17 | C#CCOc1cc(Oc2ccccc2)ncn1 | 71.1 °C
18 | OC(CN=CCc1cnc(-c2ccccc2)nc1-c1ccccc1)c1ccccc1 (configuration not stated) | 140 to 144 °C
19 | CN1C(C)(C)CC(OC(=O)N=NC(=O)OC2CC(C)(C)N(C)C(C)(C)C2)CC1(C)C | 135 to 137 °C
20 | COc1cc2c(c3c1OC(C)(C)C3)C(c1ccnc(-n3c(=O)cc(C)c4ccccc43)c1)=NC(C)(C)C2 | 218 to 219 °C
21 | COC(=O)c1ccccc1C(=O)c1ccc(N2CCC(N3C(=O)OCc4ccc(Cl)cc43)CC2)c([N+](=O)[O-])c1 | 90 to 92 °C
22 | CCOC(=O)C1OC1C(=O)N(C)C1CCCCC1 (configuration not stated) | 52 to 55 °C
23 | O=S(=O)(C(=CNc1ccccc1)S(=O)(=O)c1ccccc1)c1ccccc1 | 199 to 202 °C

Row | SMILES | melting point
24 | CC1(C)COC(c2ccc3c(c2-c2c(C4=NC(C)(C)CO4)ccc4c2OCO4)OCO3)=N1 | 152 to 154 °C
25 | CSc1ccccc1-c1ccc(C(=O)N2Cc3ccc(C(=O)NCc4cccnc4)n3Cc3ccccc32)cc1 | 172 to 175 °C
26 | COc1cccc(-c2cn(N)c(N)n2)c1 | 181 to 182 °C
27 | c1ccc(C2CCNCc3ccccc3O2)cc1 (configuration not stated) | 73 to 74 °C
28 | O=C(Nc1cc2[nH]c(=O)c(=O)[nH]c2cc1[N+](=O)[O-])C(F)(F)F | > 320 °C
29 | Fc1ccc(-c2nc(=S)n(Cc3ccccc3)[nH]2)c(Cl)c1 | 135 to 136 °C
30 | Cc1ccc(S(=O)(=O)N(c2ccc(C#N)cc2Cl)C(C)C)cc1 | 118 to 119 °C
31 | CNC(=NCCS(=O)Cc1[nH]cnc1C)NC#N (configuration not stated) | 185 to 186 °C
32 | O=C1CCc2ccc(Oc3ccc(CN4CCN(c5cccc(Cl)c5Cl)CC4)cc3)cc2N1 | 185 to 186 °C
33 | O=C1c2ccccc2C(=O)N1OC1CCCC1 | 81.2 to 82.5 °C
34 | C[C@H]1COc2c(N3C[C@@H](N)[C@@H](C4CC4)C3)c(F)cc3c(=O)c(C(=O)O)cn1c23 | 218 to 220 °C
35 | CCOP(=O)(/C=C/c1cn(-c2ccccc2)nc1OCc1ccc(OCc2nc(-c3cccc(CC(=O)O)c3)oc2C)c(OC)c1)OCC | 174 to 175 °C
36 | COCn1nc(Nc2cnccn2)c2cc(-c3ncccc3Cl)cc(OCCc3ccccn3)c21 | 120 to 122 °C
37 | CCC(C)C(CO)NC(=O)CC(O)C(CC(C)C)NC(=O)C(Cc1cccs1)NC(=O)C(Cc1cccc2ccccc12)NC(=O)OCc1ccccc1 (mixture of isomers) | 160 to 162 °C
38 | C=C(CCCC(=O)N1CCC[C@@H](C(=O)OC(C)(C)C)N1)C(=O)O | 86 to 88 °C
39 | O=Cc1c[nH]c2c1ccc1c3cc(-c4ccc(C(F)(F)F)cc4)ccc3[nH]c12 | > 250 °C
40 | COc1ccc2c(=O)cc(-c3ccccc3Cl)oc2c1 | 148 to 150 °C
41 | O=[N+]([O-])c1ccc(OCCN2CCN(c3cc(Cl)nnc3Cl)CC2)cc1 | 128 to 129 °C
42 | C[C@H](NC(=O)OC(C)(C)C)C(=O)NC1CCC(Nc2cccc3c2C(=O)c2ccccc2C3=O)CC1 (some centres not stated) | 151 °C
43 | O=C1Nc2ccc(Cl)cc2N2CCNCC12 (configuration not stated) | 300 to 303 °C
44 | CCN1CCC(=O)N(c2c(C)cccc2C)C1=S | 124 to 126 °C
45 | CS(=O)(=O)OCc1nc2ccc(F)cc2s1 | 68 to 72 °C
46 | Cn1c(-c2ccccc2)cc2onc(-c3ccccc3)c2c1=O | 145 to 148 °C

Row | SMILES | melting point
47 | CC(=O)OCC1=C(C(=O)O)N2C(=O)C(NC(=O)Cn3ccnc3S(C)(=O)=O)C2SC1 (configuration not stated) | 223 °C
48 | COc1ccc(N2C(=O)Cc3ccccc32)cc1F | 133 to 136 °C
49 | CCOC(=O)C1=C(N)NC2=C(C(=O)CCC2)C1c1ccccc1N=[N+]=[N-] (configuration not stated) | 209 °C
50 | CCCCCCCCOC(=S)c1cc(C(C)(C)C)c(OC(=O)c2cc(C(C)(C)C)c(O)c(C(C)(C)C)c2)c(C(C)(C)C)c1 | 129 to 132 °C
51 | CCc1nn(-c2ccc(F)cc2)c2cc(Br)ccc12 | 72 to 73 °C
52 | CC[C@@]12C[C@H](N)[C@](O)(c3ccccc3)C[C@H]1CCc1cc(O)ccc12 | 209 to 210 °C
53 | C=Cc1cnc(-c2ncccn2)nc1 | 150 °C
54 | Cc1cc2c(-c3cccc(N)c3)c(CC(=O)Nc3ccc(Cl)cc3C(F)(F)F)c(=O)oc2cc1Cl | 206 to 207 °C
55 | CN1CCC(O)(c2cccn2Cc2ccccc2F)CC1 | 164 to 165 °C
56 | CN1CCN(C(=O)OC2c3cc(Cl)ccc3C(=O)N2c2ccc3ccc(Cl)nc3n2)CC1 (configuration not stated) | 280 °C
57 | O=c1c(Cl)c2sc3ccccc3nc-2c2ccccc12 | 230 to 231 °C
58 | COC(C)=CC(=O)NC1(C)CCCCC1 | 105 °C
59 | CC(C#Cc1cccc(C=Cc2ccccn2)c1)N(O)C(N)=O (configuration not stated) | 122 to 126 °C
60 | CC1CC(=O)c2c(nc3c(c2N)c2ccccc2n3C)C1 (configuration not stated) | 216 to 217 °C
61 | CCOC(=O)c1c(N2CCN(C(=O)c3cccs3)CC2)c2cccnc2[nH]c1=O | 239 °C
62 | O=C(O)c1ccccc1I(=O)=O | 226 to 234 °C
63 | CCN(c1cccc(OC)c1)c1nc(=O)c2cccnc2s1 | 136 °C
64 | O=[N+]([O-])c1ccccc1/C=C/c1ccccc1[N+](=O)[O-] | 195 to 196 °C
65 | CCn1c(=O)c(-c2cc(C)cc(C)c2)cc2cnc(Nc3ccccc3)nc21 | 220 to 223 °C
66 | Cn1c2ccncc2c(=O)n2nccc12 | > 300 °C
67 | COc1cccc(-c2c(=O)[nH]c3cc(Cl)c(Cl)cc3[n+]2[O-])c1 | 238 to 240 °C

Continued, values first:

Row | melting point | SMILES
68 | 140 to 142 °C | COC(=O)c1cc(N)c(Oc2ccccc2)c(N)c1
69 | 134 to 136 °C | CC(C)(C)C(=O)C(Oc1ccc(Cl)cc1)n1ncnc1S (configuration not stated)
70 | 185 to 186 °C | COc1ccc(N2CCN(CCC3OCCc4c(C(N)=O)cccc43)CC2)cc1 (configuration not stated)
71 | 105 °C | O=C(O)CCC(c1ccccc1)c1ccccc1F (configuration not stated)
72 | 231 to 234 °C | CCOC(=O)c1ccc(-c2cc3c(NCCCN4CCOCC4)ncnc3[nH]2)cc1
73 | 227 to 229 °C | CCc1nc2c(C)cc(C)nc2n1Cc1ccc(C(c2ccccc2)C(CC)C(=O)O)cc1 (configuration not stated)
74 | 94 to 96 °C | O=c1n(CCCN2CCN(c3ccccc3)CC2)nc2n1-c1ccccc1OC2
75 | 132 °C | O=C(c1ccncc1)c1cnc2cc(Cl)ccc2c1Cl
76 | 141 to 142 °C | Cc1cn(Cc2ccc(N)cc2)cn1
77 | 56 to 57 °C | CCC(=O)CCC(=O)c1ccc(F)cc1
78 | 206 to 207 °C | CC(=O)Nc1ccc(C(=O)SC[C@@H](C)C(=O)N2CSC[C@H]2C(=O)O)cc1
79 | 96.3 to 98.5 °C | O=C1CC[C@H](c2ccc(NC(=O)OCc3ccccc3)cc2)C1
80 | 68 to 69 °C | CCOC(=O)c1ncc(-c2cccs2)s1
81 | 94 to 95 °C | CC(C)N(C(=O)n1oc(=O)[nH]c1=O)c1ccc(F)cc1
82 | 138 °C | CC1CCN(C(=O)c2nc(-c3ccccc3)nc3ccccc23)CC1
83 | 163 to 164 °C | CCCn1cnc(C(N)=O)c1NC(=S)NC(=O)c1ccccc1
84 | 129 to 130 °C | COC(=O)C(C#N)(CCCN(C)CCc1ccc(OC)c(OC)c1)c1ccc(OC)c(OC)c1 (configuration not stated)
85 | 164 to 165 °C | C[Si](C)(C)CCCNc1ccc(C(=O)O)cc1

Row | melting point | SMILES
86 | 151 to 153 °C | COC(=O)C=Cc1cc(F)ccc1C(=O)O
87 | 152 to 153 °C | O=C(O)C1=Cc2ccccc2OC1C(F)(F)F (configuration not stated)
88 | 162 to 164 °C | CC(Cc1ccccc1)(C(=NC#N)NCCc1ccccc1)c1ccccn1 (configuration not stated)
89 | 72 to 74 °C | Cc1cc(Cl)ccc1Cn1nc(C(C)(C)O)c2ccccc21
90 | 144 to 146 °C | CC(C)(C)C(=O)NCCc1ccc(O)c(O)c1
91 | 82 to 83 °C | COc1cc(COC(=O)NCCN2CCOCC2)ccc1OC(C)=O
92 | 136 to 137 °C | O=C(O)Cc1cc(Br)c(-c2ccc(Cl)cc2)s1
93 | 185 to 187 °C | CS(=O)(=O)Nc1ccc(Sc2cnc(N)s2)cc1
94 | 203 to 204 °C | CCc1cnc2c(NC(=O)c3c(Cl)cccc3Cl)cccc2c1CC(C)(C)O
95 | 42 °C | CNCCc1ccc2[nH]nc(S(=O)(=O)c3ccccc3)c2c1
96 | 210 to 212 °C | O=C(NCc1ccc(Cl)cc1)c1cn2c(CO)cc3cc(CN4CCOCC4)cc(c1=O)c32
97 | 91 to 92 °C | CCOC(=O)C(C)Oc1ccc(N(C)c2nc3ccc(Br)cc3o2)cc1 (configuration not stated)
98 | 119 to 120 °C | CCCCCCC1(c2ccccc2)CC(O)=CC(=O)O1 (configuration not stated)
99 | 41 to 42 °C | CCOC(=O)CCCCCCc1ccc2ccccc2c1O
100 | 223 to 225 °C | CC1(COc2ccc(CC3SC(=O)NC3=O)cc2)CCc2cc(C(=O)O)ccc2O1 (configuration not stated)
101 | 100 °C | CCCN(CCC)C(=O)C1CSc2ccc(N)cc21 (configuration not stated)
102 | 207 to 208 °C | O=c1[nH]c(N2CCN(CCO)CC2)cc2c(F)cccc12
